What was measured:
Format in all cases: in vivo
[1] = Pharmacokinetic test in the body of a test animal, plasma drug concentration by HPLC-MS (interconversion of enantiomers); settings: each time point after administration, GITC derivatization
From the text: It is found from pharmacokinetic experiment that, conversion of R-(−)-N-(α-mercaptopropionyl)glycine and S-(+)-N-(α-mercaptopropionyl)glycine to each other have not occurred in body. The specific experiment is a pharmacokinetic test in the body of a test animal, including determining the plasma drug concentration with high-performance liquid chromatography-mass spectrometry (HPLC-MS).
The process for treat a plasma sample to formulate an injected solution includes plasma acidification, extraction, and then derivatization, and is as follows: […]
ionization mode: electrospray ionization; selective ion detection; curved desolvation line (CDL); temperature: 200° C.-300° C., with 250° C. being preferred; heating block temperature: 150° C.-250° C., with 200° C. being preferred; CDL voltage: 20V-30V, with 25V being preferred; detection voltage: +1.2 kV-+1.8 kV, with +1.50 kV being preferred; flow rate of atomizing gas: 1.2 L/min-1.8 L/min, with 1.5 L/min being preferred; flow rate of drying gas: 1.5 L/min-2.5 L/min, with 2.0 L/min being preferred; detected ion: derivative of test drug [M+Na]+(m/z): 575.20; internal standard: derivative of N-isobutanoyl-D-cysteine (NIDC) [M+Na]+(m/z): 603.05; […]

[2] = tested on: mice with liver injury induced by acetamidophenol; assay: Liver injury in mice induced by acetamidophenol, drugs by intravenous injection: serum biochemical indicators and liver indexes; settings: for Liver albumin / Liver total protein / GSH: 10% liver homogenate; for Liver albumin / Liver total protein / Liver coefficient / Serum total protein / mice dead after modeling / GSH / MDA: mice, drug 800 mg/kg iv; for Liver coefficient / Serum total protein: acetamidophenol 400 mg/kg ip, 24 hours after modeling; for mice dead after modeling: acetamidophenol model; for GSH / MDA: liver
Protocol: The animals were randomly divided into the following 5 groups of 10 animals according to weight: solvent control group, model group (acetamidophenol, 400 mg/kg, ml/kg, intraperitoneal injection), tiopronin group (MPG), R-(−)-N-(α-mercaptopropionyl)glycine group, and S-(+)-N-(α-mercaptopropionyl)glycine group. After fasting for 12 h, except the solvent control group and model group were given saline by intravenous injection, the other test groups were intravenously injected drugs, and then intraperitoneally injected 400/mg/kg of acetamidophenol immediately, to induce acute liver cell injury. The animals were fed with food at 6 hours after modeling, and then fasted for 16 hours; and at 24 hours after modeling, blood were sampled by eye ball removal, centrifuged, and collected for serum. ALT, and AST were determined following the method of the kit. 10% of liver homogenate was prepared, to measure GSH. The liver and spleen were taken at the same time, weighted, and calculated for organcoefficient.

[3] = tested on: rats with liver injury induced by CCl4; assay: Protection against liver injury in rats induced by carbon tetrachloride, drugs given intragastrically; settings: CCl4 model, drug 450 mg/kg ig; for Albumin / Globulin / Total protein: serum; for A/G: serum albumin/globulin
Protocol: The animals were randomly divided into the following 5 groups of 10 animals according to weight: solvent control group, model group (50% CCl4, 2 ml/kg, intraperitoneal injection), tiopronin group (MPG), R-(−)-N-(α-mercaptopropionyl)glycine group, and S-(+)-N-(α-mercaptopropionyl)glycine group. Except the solvent control group was given olive oil by intraperitoneal injection, the other test groups were intragastrically administrated drugs for 4 days, once daily, intraperitoneally injected CCl4 once on the fifth day to induce acute liver cell injury, treated with drugs 30 min before modeling (except for the model control group), and then administrated drugs once 2 hours after modeling. Then, the animals were fasted for 16 h, blood was sampled from retrobulbar venous plexus 24 hours after injecting CCl4, centrifuged, and collected for serum, and ALT, AST, albumin were determined following the method of the kit. The left lobe of liver was taken to prepare 10% of liver homogenate and measure GSH and MDA contents.

[4] = listed as S—H—N-(α-mercaptopropionyl)glycine

C[C@@H](S)C(=O)NCC(=O)O [R-(−)-N-(α-mercaptopropionyl)glycine]
presence of the other enantiomer in plasma spectrogram after individual administration (conversion in body) [1]: not obviously detected
Liver albumin [2]: 9.2 ± 1.3 mg/mL
Liver total protein [2]: 16.5 ± 1.7 mg/mL
Liver coefficient [2]: 5.816 ± 0.613 mg/g
Serum total protein [2]: 43.8 ± 7.4 mg/mL
mice dead after modeling [2]: no death
protection against liver injury in mice induced by acetamidophenol ([2]; overall comparison with tiopronin group, 800 mg/kg iv): superior to that in tiopronin group

CC(S)C(=O)NCC(=O)O (stereo not drawn) [S-(+)-N-(α-mercaptopropionyl)glycine]
presence of the other enantiomer in plasma spectrogram after individual administration (conversion in body) [1]: not obviously detected
Liver albumin [2]: 9.1 ± 2.0 mg/mL
Liver total protein [2]: 16.2 ± 2.9 mg/mL
GSH [2, 4]: no such effects
MDA [2]: 440.0 ± 134.6 nmol/g wet weight
MDA [2, 4]: no such effects
Liver coefficient [2]: 6.201 ± 0.567 mg/g
Serum total protein [2]: 43.7 ± 5.7 mg/mL
Albumin [3]: 27.5 ± 1.44 mg/mL
Globulin [3]: 37.2 ± 5.06 mg/mL
Total protein [3]: 64.7 ± 6.40 mg/mL

CC(S)C(=O)NCC(=O)O (stereo not drawn) [Tiopronin, N-(α-mercaptopropionyl)glycine]
Liver albumin [2]: 9.6 ± 1.1 mg/mL
Liver total protein [2]: 15.7 ± 1.4 mg/mL
GSH ([2]; listed as tiopronin): no such effects
MDA [2]: 362.4 ± 98.6 nmol/g wet weight
MDA ([2]; listed as tiopronin): no such effects
Liver coefficient [2]: 5.804 ± 0.598 mg/g
mice dead after modeling [2]: 4
A/G [3]: 0.825 ± 0.101
A/G ([3]; listed as tiopronin): no obvious effect
Albumin [3]: 26.8 ± 1.98 mg/mL
Globulin [3]: 32.9 ± 4.79 mg/mL
Total protein [3]: 59.8 ± 6.26 mg/mL
Albumin ([3]; listed as tiopronin): no obvious effect
Globulin ([3]; listed as tiopronin): no obvious effect
Total protein ([3]; listed as tiopronin): no obvious effect

Source: patent US20100204324A1, “Optically Active N-(Alpha-Mercaptopropionyl)Glycine” (priority 2007, published 2010)
